Measured values: patent US20070270475A1, “4-Methoxy-Pyrrolidine-2-Carboxylic Acid Compounds and Derivatives Thereof as Hepatitis C Virus Inhibitors” (priority 2004, published 2007)

molecular target: T1, HCV RNA Polymerase, recombinant NS5B with C-terminal 21 amino acid deletion, genotype 1a (strain H77) (Hepatitis C virus genotype 1a, UniProt P27958); assay: In vitro HCV RNA-dependent RNA polymerase inhibition assay, genotype 1a C-terminally truncated (delta21) enzyme; type: biochemical, HCV genotype 1a; conditions: genotype 1a NS5B delta21, 25 nM enzyme; read-out: IC50 in delta-21 1a enzyme inhibition assay
T1 construct: fused on or other part: C-terminal 6His-tag
T1 sequence (P27958 2601-2990 limits assumed, stated change not applied): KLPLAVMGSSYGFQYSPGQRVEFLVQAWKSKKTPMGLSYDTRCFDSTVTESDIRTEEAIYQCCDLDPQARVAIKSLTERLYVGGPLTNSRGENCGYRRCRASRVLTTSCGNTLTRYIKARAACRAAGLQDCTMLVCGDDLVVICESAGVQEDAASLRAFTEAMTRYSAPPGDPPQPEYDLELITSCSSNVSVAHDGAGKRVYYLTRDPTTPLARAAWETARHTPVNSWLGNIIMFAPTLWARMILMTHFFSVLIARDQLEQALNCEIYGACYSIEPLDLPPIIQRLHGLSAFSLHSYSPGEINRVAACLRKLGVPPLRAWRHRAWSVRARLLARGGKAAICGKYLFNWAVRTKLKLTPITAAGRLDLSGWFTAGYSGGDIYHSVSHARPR
Text: In Vitro Detection of inhibitors of HCV RNA-Dependent RNA Polymerase Activity
Incorporation of [^33P]-GMP into RNA was followed by absorption of the biotin labelled RNA polymer by streptavidin containing SPA beads. A synthetic template consisting of biotinylated 13mer-oligoG hybridised to polyrC was used as a homopolymer substrate.
a) Genotype 1a C-Terminally Truncated (delta21) Enzyme
HCV RNA Polymerase [Recombinant NS5B with C-terminal 21 amino acid deletion and C-terminal 6His-tag (Ferrari et al. J. Virol. 73(2), 1999, 1649. ‘Characterization of soluble hepatitis C virus RNA-dependent RNA polymerase expressed in Escherichia coli.’) expressed in E. coli and purified to homogeneity] was added to 25 nM final concentration. Polymerase of genotype la was from strain H77 (Yanagi, M., Purcell, R. H., Emerson, S. U. & Bukh, J. (1997), Proceedings of the National Academy of Sciences, USA 94, 8738-8743) containing a sequence change from valine to isoleucine at position 180.
Reaction Conditions were 25 nM enzyme, 1.5 μg/ml oligo-rG13/poly-rC and 0.2 μCi α-^33P-GTP in 0.5 μM GTP (20 Ci/mMol) , 20 mM Tris pH 7.5, 23 mM NaCl, 3 mM DTT, 5 mM MgCl2, 1 mM MnCl2.
Enzyme was diluted to 500 nM concentration in 20 mM Tris-HCl, pH 7.5, 25 mM NaCl and 3 mM DTT.
4× concentrated assay buffer mix was prepared using 1M Tris-HCl, pH7.5 (1 mL), 5M NaCl (0.25 mL), 1M DTT (0.12 mL) and Water (8.63 mL), Total 10 mL.
2× concentrated first reagent was prepared using 4× concentrated assay buffer mix (5 μL), 40 μ/μL RNasin (0.1 μL), 20 μg/mL polyrC/biotinylated-oligorG (1.6 μL), 500 nM enzyme (1 μL ) and Water (2.3 μL), Total 10 μL/well.
2× concentrated second reagent was prepared using 1 M MgCl2 ([…]), 1M MnCl2 (0.02 μL), 25 μM GTP (0.4 μL), α-[^33P]-GTP (10 μCi/μL, 0.02 μL) and water (9.5 μL), Total 10 μL/well.
The assay was set up using compound (1 μL in 100% DMSO), first reagent (10 μL), and second reagent (10 μL), Total 21 μL.
The reaction was performed in a U-bottomed, white, 96-well plate. The reaction was mixed on a plate-shaker, after addition of the Enzyme, and incubated for 1 h at 22° C. After this time, the reaction was stopped by addition of 60 μL 1.5 mg/ml streptavidin SPA beads (Amersham) in 0.1 M EDTA in PBS. The beads were incubated with the reaction mixture for 1 h at 22° C. after which 100 μL 0.1 M EDTA in PBS was added. The plate was sealed, mixed centrifuged and incorporated radioactivity determined by counting in a Trilux (Wallac) or Topcount (Packard) Scintillation Counter.
After subtraction of background levels without enzyme, any reduction in the amount of radioactivity incorporated in the presence of a compound, compared to that in the absence, was taken as a measure of the level of inhibition. Ten concentrations of compounds were tested in three- or fivefold dilutions. From the counts per minute, percentage of inhibition at highest concentration tested or IC50s for the compounds were calculated using GraFit 3, GraFit 4 or GraFit 5 (Erithacus Software Ltd.) software packages or a data evaluation macro for Excel based on XLFit software (IDBS).

| SMILES | IC50 [nM] |
| --- | --- |
| COCC1CC(CC(C)C)(C(=O)O)N(C(=O)c2ccc(C(C)(C)C)c(OC)c2)C1c1ncc(C)s1 (single isomer, unassigned; enantiomer a) [Compound D, reference compound] | 750 to 1000 |
| COC[C@H]1C[C@@](Cc2cscn2)(C(=O)O)N(C(=O)c2ccc(C(C)(C)C)c(OC)c2)[C@H]1c1nccs1 (racemic) [Example 3, rel-(2R,4S,5R)-1-(3-Methoxy-4-tert-butylbenzoyl)-4-(methoxymethyl)-5-(1,3-thiazol-2-yl)-2-(1,3-thiazol-4-ylmethyl)pyrrolidine-2-carboxylic acid] | < 750 |
| COC[C@H]1C[C@@](CC(C)C)(C(=O)O)N(C(=O)c2ccc(C(C)(C)C)c(OC)c2)[C@H]1c1ncc(C)s1 (racemic) [Compound C, rel-(2S,4S,5R)-2-isobutyl-1-(3-methoxy-4-tert-butylbenzoyl)-4-methoxymethyl-5-(5-methyl-1,3-thiazol-2-yl)pyrrolidine-2-carboxylic acid, reference compound] | > 1000 |
| COC[C@H]1C[C@@](Cc2cscn2)(C(=O)O)N(C(=O)c2ccc(C(C)(C)C)c(OC)c2)[C@H]1c1ncc(C)s1 (single isomer, unassigned; enantiomer a) [Example 2] | < 750 |
| COC[C@H]1C[C@@](Cc2cscn2)(C(=O)O)N(C(=O)c2ccc(C(C)(C)C)c(OC)c2)[C@H]1c1nccs1 (single isomer, unassigned; enantiomer a) [Example 12] | < 750 |
| COC[C@H]1C[C@@](Cc2ccsn2)(C(=O)O)N(C(=O)c2ccc(C(C)(C)C)c(OC)c2)[C@H]1c1nccs1 (racemic) [Example 4, rel-(2R,4S,5R)-1-(3-Methoxy-4-tert-butylbenzoyl)-4-(methoxymethyl)-5-(1,3-thiazol-2-yl)-2-(1,2-thiazol-3-ylmethyl)pyrrolidine-2-carboxylic acid] | < 750 |
| COC[C@H]1C[C@@](Cc2ccsn2)(C(=O)O)N(C(=O)c2ccc(C(C)(C)C)c(OC)c2)[C@H]1c1nccs1 (single isomer, unassigned; enantiomer a) [Example 5] | < 750 |
| COC[C@H]1C[C@@](Cc2ccsn2)(C(=O)O)N(C(=O)c2ccc(C(C)(C)C)c(OC)c2)[C@H]1c1ncc(C)s1 (racemic) [Example 9, rel-(2R,4S,5R)-1-(3-Methoxy-4-tert-butylbenzoyl)-4-(methoxymethyl)-5-(5-methyl-1,3-thiazol-2-yl)-2-(1,2-thiazol-3-ylmethyl)pyrrolidine-2-carboxylic acid] | < 750 |
| COC[C@H]1C[C@@](Cn2cccn2)(C(=O)O)N(C(=O)c2ccc(C(C)(C)C)c(OC)c2)[C@H]1c1ncc(C)s1 (racemic) [Example 10, rel-(2R,4S,5R)-1-(3-Methoxy-4-tert-butylbenzoyl)-4-(methoxymethyl)-5-(5-methyl-1,3-thiazol-2-yl)-2-(1H-pyrazol-1-ylmethyl)pyrrolidine-2-carboxylic acid] | < 750 |
| COC[C@H]1C[C@@](CC(C)C)(C(=O)O)N(C(=O)c2ccc(C(C)(C)C)c(OC)c2)[C@H]1c1nccs1 [Compound B, (2S,4S,5R)-2-isobutyl-1-(3-methoxy-4-tert-butylbenzoyl)-4-methoxymethyl-5-(1,3-thiazol-2-yl)pyrrolidine-2-carboxylic acid, reference compound] | > 1000 |
| COC[C@H]1C[C@@](Cn2cccn2)(C(=O)O)N(C(=O)c2ccc(C(C)(C)C)c(OC)c2)[C@H]1c1nccs1 (single isomer, unassigned) [Example 7] | < 750 |
| COC[C@H]1C[C@@](Cc2nccs2)(C(=O)O)N(C(=O)c2ccc(C(C)(C)C)c(OC)c2)[C@H]1c1ncc(C)s1 (racemic) [Example 8, rel-(2R,4S,5R)-1-(3-Methoxy-4-tert-butylbenzoyl)-4-(methoxymethyl)-5-(5-methyl-1,3-thiazol-2-yl)-2-(1,3-thiazol-2-ylmethyl)pyrrolidine-2-carboxylic acid] | < 750 |
| COC[C@H]1C[C@@](Cc2cscn2)(C(=O)O)N(C(=O)c2ccc(C(C)(C)C)c(OC)c2)[C@H]1c1ncc(C)s1 (racemic) [Example 1, rel-(2R,4S,5R)-1-(3-Methoxy-4-tert-butylbenzoyl)-4-(methoxymethyl)-5-(5-methyl-1,3-thiazol-2-yl)-2-(1,3-thiazol-4-ylmethyl)pyrrolidine-2-carboxylic acid] | < 750 |
| COC[C@H]1C[C@@](Cn2cccn2)(C(=O)O)N(C(=O)c2ccc(C(C)(C)C)c(OC)c2)[C@H]1c1ncc(C)s1 (single isomer, unassigned; enantiomer a) [Example 11] | < 750 |
| COC[C@H]1C[C@@](CC(C)C)(C(=O)O)N(C(=O)c2ccc(C(C)(C)C)c(OC)c2)[C@H]1c1nccs1 (racemic) [Compound A, rel-(2S,4S,5R)-2-isobutyl-1-(3-methoxy-4-tert-butylbenzoyl)-4-methoxymethyl-5-(1,3-thiazol-2-yl)pyrrolidine-2-carboxylic acid, reference compound] | > 1000 |
| COC[C@H]1C[C@@](Cc2ccccc2)(C(=O)O)N(C(=O)c2ccc(C(C)(C)C)c(OC)c2)[C@H]1c1nccs1 (racemic) [Compound E, rel-(2R,4S,5R)-2-benzyl-1-(3-methoxy-4-tert-butylbenzoyl)-4-methoxymethyl-5-(1,3-thiazol-2-yl)-pyrrolidine-2-carboxylic acid, reference compound] | > 1000 |
| COC[C@H]1C[C@@](Cn2cccn2)(C(=O)O)N(C(=O)c2ccc(C(C)(C)C)c(OC)c2)[C@H]1c1nccs1 (racemic) [Example 6, rel-(2R,4S,5R)-1-(3-Methoxy-4-tert-butylbenzoyl)-4-(methoxymethyl)-2-(1H-pyrazol-1-ylmethyl)-5-(1,3-thiazol-2-yl)pyrrolidine-2-carboxylic acid] | < 750 |
